Laboratory results reported in patent US11173145B2, “Compounds useful as inhibitors of indoleamine 2,3-dioxygenase and/or tryptophan dioxygenase” (Board of Regents, The University of Texas System, priority 2017, dated 2021).

Molecular target: T1, IDO1 (Homo sapiens, UniProt P14902)
T1 construct: endogenous in cells; host or cells: HeLa cells (ATCC), IFNgamma-induced
Experiment: IDO1 cell-based assay (HeLa cells, IFNgamma-induced, N-formylkynurenine/L-tryptophan by RFMS)
Settings: 10 ng/mL IFNgamma, 24 hours
Method in brief: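 N-formylkynurenine and tryptophan peak areas in media measured by RFMS (C18, isocratic, d-Trp standard), giving IC50 values by regression. Source: HeLa cells incubated 24 h with IFNgamma (10 ng/mL) plus test compound at 0.5% DMSO; parallel CellTiter-Glo viability read.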

T1 sequence (P14902 whole entry): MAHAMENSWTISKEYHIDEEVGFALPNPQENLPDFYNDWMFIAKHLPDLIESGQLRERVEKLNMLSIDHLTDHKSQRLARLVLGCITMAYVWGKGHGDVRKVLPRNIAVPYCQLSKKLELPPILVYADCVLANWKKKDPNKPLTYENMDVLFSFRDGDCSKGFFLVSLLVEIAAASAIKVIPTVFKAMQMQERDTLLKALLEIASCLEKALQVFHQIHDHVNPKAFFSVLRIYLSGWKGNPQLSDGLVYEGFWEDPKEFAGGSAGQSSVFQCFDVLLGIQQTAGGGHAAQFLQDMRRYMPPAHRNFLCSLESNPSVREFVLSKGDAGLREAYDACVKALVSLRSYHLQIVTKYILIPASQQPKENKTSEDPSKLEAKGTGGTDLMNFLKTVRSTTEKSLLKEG

Row | Structure (SMILES) | IC50
1 | CCOC(=O)CC(NC(=O)c1ccc(Cl)cc1)[C@H]1[C@@H]2C[C@@H](Oc3ncnc4ccc(F)cc34)C[C@@H]21 (stereo partly drawn) [Compound 134, ethyl 3-(4-chlorobenzamido)-3-((1R,3s,5S,6r)-3-((6-fluoroquinazolin-4-yl)oxy)bicyclo[3.1.0]hexan-6-yl)propanoate] | < 200 nM
2 | O=C(Cc1ccc(Cl)cc1)N[C@H]1[C@@H]2C[C@@H](n3ncc(=O)c4ccccc43)C[C@@H]21 [Compound 85, 2-(4-chlorophenyl)-N-((1R,3s,5S,6r)-3-(4-oxocinnolin-1(4H)-yl)bicyclo[3.1.0]hexan-6-yl)acetamide] | > 5000 nM
3 | CCC(NC(=O)c1ccc(Cl)cc1)[C@H]1[C@@H]2C[C@@H](Oc3ncnc4cc(F)ccc34)C[C@@H]21 (stereo partly drawn) [Compound 35, 4-chloro-N-(1-((1R,3s,5S,6r)-3-((7-fluoroquinazolin-4-yl)oxy)bicyclo[3.1.0]hexan-6-yl)propyl)benzamide] | < 200 nM
4 | O=C(NC[C@@H]1[C@H]2C[C@@H](Oc3ccc4nccc(Cl)c4c3)C[C@@H]12)c1ccc(Cl)cc1 [Compound 33, 4-chloro-N-(((1R,3r,5S,6r)-3-((4-chloroquinolin-6-yl)oxy)bicyclo[3.1.0]hexan-6-yl)methyl)benzamide] | 200 to 2000 nM
5 | CCC(NC(=O)c1ccc(Cl)cc1)[C@H]1[C@@H]2C[C@@H](O)C[C@@H]21 (single isomer, unassigned) [Compound 3] | 200 to 2000 nM
6 | CCC(NC(=O)c1ccc(Cl)cc1)[C@H]1[C@@H]2C[C@@H](n3nnc4ccccc43)C[C@@H]21 (stereo partly drawn) [Compound 99, N-(1-((1R,3s,5S,6r)-3-(1H-benzo[d][1,2,3]triazol-1-yl)bicyclo[3.1.0]hexan-6-yl)propyl)-4-chlorobenzamide] | < 200 nM
7 | O=C(NC1C2CC(Oc3cc(C(F)(F)F)nc4ccc(F)cc34)CC21)c1ccc(Cl)cc1 (centres unmarked) [Compound 25, 4-chloro-N-(3-((6-fluoro-2-(trifluoromethyl)quinolin-4-yl)oxy)bicyclo[3.1.0]hexan-6-yl)benzamide] | > 5000 nM
8 | CCC(NC(=O)c1ccc(Cl)cc1)[C@H]1[C@@H]2C[C@@H](Oc3ccnc(C)c3F)C[C@@H]21 (stereo partly drawn) [Compound 93, 4-chloro-N-(1-((1R,3s,5S,6r)-3-((3-fluoro-2-methylpyridin-4-yl)oxy)bicyclo[3.1.0]hexan-6-yl)propyl)benzamide] | < 200 nM
9 | CCC(NC(=O)c1ccc(Cl)cc1)[C@H]1[C@@H]2C[C@@H](n3ncc4ccncc43)C[C@@H]21 (stereo partly drawn) [Compound 174, N-(1-((1R,3s,5S,6r)-3-(1H-pyrazolo[3,4-c]pyridin-1-yl)bicyclo[3.1.0]hexan-6-yl)propyl)-4-chlorobenzamide] | < 200 nM
10 | CCC(NC(=O)c1ccc(OC)nc1)C1C2CC(Oc3ncnc4ccc(F)cc34)CC21 [Compound 78, N-(1-((1R,3s,5S,6r)-3-((6-fluoroquinazolin-4-yl)oxy)bicyclo[3.1.0]hexan-6-yl)propyl)-6-methoxynicotinamide] | < 200 nM
11 | COC(=O)C(NC(=O)c1ccc(Cl)cc1)[C@H]1[C@@H]2C[C@@H](n3cc(C4CC4)nn3)C[C@@H]21 (stereo partly drawn) [Compound 169, methyl 2-(4-chlorobenzamido)-2-((1R,3s,5S,6r)-3-(4-cyclopropyl-1H-1,2,3-triazol-1-yl)bicyclo[3.1.0]hexan-6-yl)acetate] | 200 to 2000 nM
12 | CCC(NC(=O)c1ccc(Cl)cc1)[C@H]1[C@@H]2C[C@@H](Oc3ccccc3CN(C)C)C[C@@H]21 (stereo partly drawn) [Compound 48, 4-chloro-N-(1-((1R,3s,5S,6r)-3-(2-((dimethylamino)methyl)phenoxy)bicyclo[3.1.0]hexan-6-yl)propyl)benzamide] | 2000 to 5000 nM
13 | O=C(Cc1ccc(Cl)cc1)NC1[C@H]2CC(Oc3ccnc4ccc(F)cc34)C[C@@H]12 (stereo partly drawn) [Compound 31, 2-(4-chlorophenyl)-N-((1R,3r,5S)-3-((6-fluoroquinolin-4-yl)oxy)bicyclo[3.1.0]hexan-6-yl)acetamide] | 200 to 2000 nM
14 | CCC(NC(=O)c1ccc(Cl)cc1)[C@H]1[C@@H]2C[C@@H](n3cc4cc(F)ccc4n3)C[C@@H]21 (stereo partly drawn) [Compound 207, 4-chloro-N-(1-((1R,3s,5S,6r)-3-(5-fluoro-2H-indazol-2-yl)bicyclo[3.1.0]hexan-6-yl)propyl)benzamide] | < 200 nM
15 | CCC(NC(=O)c1ccc(Cl)cc1)[C@H]1[C@@H]2C[C@@H](Oc3ncccc3F)C[C@@H]21 (stereo partly drawn) [Compound 39, 4-chloro-N-(1-((1R,3s,5S,6r)-3-((3-fluoropyridin-2-yl)oxy)bicyclo[3.1.0]hexan-6-yl)propyl)benzamide] | < 200 nM
16 | C=C(C)c1cn([C@@H]2C[C@@H]3[C@H](C2)[C@H]3C(CC)NC(=O)c2ccc(Cl)cc2)nn1 (stereo partly drawn) [Compound 262, 4-chloro-N-(1-((1R,3S,5S,6r)-3-(4-(propen-2-yl)-1H-1,2,3-triazol-1-yl)bicyclo[3.1.0]hexan-6-yl)propyl)benzamide] | < 200 nM
17 | O=C(Cc1ncc(Cl)cc1F)NC1C2CN(c3ccnc4ccc(F)cc34)CC21 (centres unmarked) [Compound 112, 2-(5-chloro-3-fluoropyridin-2-yl)-N-(3-(6-fluoroquinolin-4-yl)-3-azabicyclo[3.1.0]hexan-6-yl)acetamide] | > 5000 nM
18 | CCC(NC(=O)c1ccc(Cl)cc1)[C@H]1[C@@H]2C[C@@H](OC3CCOCC3)C[C@@H]21 (stereo partly drawn) [Compound 101, 4-chloro-N-(1-((1R,3s,5S,6r)-3-((tetrahydro-2H-pyran-4-yl)oxy)bicyclo[3.1.0]hexan-6-yl)propyl)benzamide] | 200 to 2000 nM
19 | CCC(NC(=O)c1ccc(OC)nc1)[C@H]1[C@@H]2C[C@@H](n3cnc4ccc(F)cc4c3=O)C[C@@H]21 (stereo partly drawn) [Compound 74, N-(1-((1R,3s,5S,6r)-3-(6-fluoro-4-oxoquinazolin-3(4H)-yl)bicyclo[3.1.0]hexan-6-yl)propyl)-6-methoxynicotinamide] | 200 to 2000 nM
20 | O=C(NC[C@@H]1[C@H]2C[C@H](n3cnc4ccc(F)cc4c3=O)C[C@@H]12)c1ccc(Cl)cc1 [Compound 65, 4-chloro-N-(((1R,3s,5S,6r)-3-(6-fluoro-4-oxoquinazolin-3(4H)-yl)bicyclo[3.1.0]hexan-6-yl)methyl)benzamide] | 200 to 2000 nM
21 | CC(C)(NC(=O)c1ccc(C#N)cc1)C1[C@H]2CC(Oc3cnnc4ccccc34)C[C@@H]12 (stereo partly drawn) [Compound 88, N-(2-((1R,5S)-3-(cinnolin-4-yloxy)bicyclo[3.1.0]hexan-6-yl)propan-2-yl)-4-cyanobenzamide] | < 200 nM

Now from value to molecule:

Row | IC50 | Structure (SMILES)
22 | < 200 nM | Cc1ccc(C(=O)NC[C@@H]2[C@H]3C[C@H](n4cnc5cc(F)c(F)cc54)C[C@@H]23)cc1 [Compound 322, N-(((1R,3s,5S,6r)-3-(5,6-difluoro-1H-benzo[d]imidazol-1-yl)bicyclo[3.1.0]hexan-6-yl)methyl)-4-methylbenzamide]
23 | < 200 nM | CC[C@@H](NC(=O)c1ccc(Cl)cc1)[C@H]1[C@@H]2C[C@@H](Nc3ncnc4ccc(C)cc34)C[C@@H]21 [Compound 338, 4-chloro-N-((R)-1-((1R,3S,5S,6r)-3-((6-methylquinazolin-4-yl)amino)bicyclo[3.1.0]hexan-6-yl)propyl)benzamide]
24 | > 5000 nM | C[C@@H](NC(=O)c1ccc(C#N)cc1)[C@H]1[C@@H]2C[C@@H](O)C[C@@H]21 [Compound 297, 4-cyano-N-((R)-1-((1R,3S,5S,6r)-3-hydroxybicyclo[3.1.0]hexan-6-yl)ethyl)benzamide]
25 | < 200 nM | CC[C@@H](NC(=O)c1cccc(C#N)c1)[C@H]1[C@@H]2C[C@@H](n3cnc4cc(F)c(F)cc43)C[C@@H]21 [Compound 313, 3-cyano-N-((R)-1-((1R,3S,5S,6r)-3-(5,6-difluoro-1H-benzo[d]imidazol-1-yl)bicyclo[3.1.0]hexan-6-yl)propyl)benzamide]
26 | < 200 nM | CC[C@@H](NC(=O)c1ccc(Cl)cc1)[C@H]1[C@@H]2C[C@H](c3ccnc4ccc(F)cc34)C[C@@H]21 [Compound 286, 4-chloro-N-((R)-1-((1R,3R,5S,6r)-3-(6-fluoroquinolin-4-yl)bicyclo[3.1.0]hexan-6-yl)propyl)benzamide]
27 | 2000 to 5000 nM | CC[C@@H](NC(=O)N1CCOCC1)[C@H]1[C@@H]2C[C@@H](n3cnc4cc(F)c(F)cc43)C[C@@H]21 [Compound 356, N-((R)-1-((1R,3S,5S,6r)-3-(5,6-difluoro-1H-benzo[d]imidazol-1-yl)bicyclo[3.1.0]hexan-6-yl)propyl)morpholine-4-carboxamide]
28 | < 200 nM | O=C(NC[C@@H]1[C@H]2C[C@H](n3cnc4cc(F)c(F)cc43)C[C@@H]12)c1ccc(F)cc1 [Compound 314, N-(((1R,3s,5S,6r)-3-(5,6-difluoro-1H-benzo[d]imidazol-1-yl)bicyclo[3.1.0]hexan-6-yl)methyl)-4-fluorobenzamide]
29 | < 200 nM | CC[C@@H](NC(=O)c1ccc(Cl)cc1)[C@H]1[C@@H]2C[C@@H](Nc3cc(Cl)ccc3[N+](=O)[O-])C[C@@H]21 [Compound 284, 4-chloro-N-((R)-1-((1R,3S,5S,6r)-3-((5-chloro-2-nitrophenyl)amino)bicyclo[3.1.0]hexan-6-yl)propyl)benzamide]
30 | < 200 nM | CCOC(=O)C(C(=O)OCC)[C@@H]1C[C@@H]2[C@H](C1)[C@H]2[C@@H](CC)NC(=O)c1ccc(Cl)cc1 [Compound 290, diethyl 2-((1R,3S,5S,6r)-6-((R)-1-(4-chlorobenzamido)propyl)bicyclo[3.1.0]hexan-3-yl)malonate]
31 | < 200 nM | CC[C@@H](NC(=O)c1ccc(Cl)cc1)[C@H]1[C@@H]2C[C@@H](n3nccc3C3CC3)C[C@@H]21 [Compound 342, 4-chloro-N-((R)-1-((1R,3S,5S,6r)-3-(5-cyclopropyl-1H-pyrazol-1-yl)bicyclo[3.1.0]hexan-6-yl)propyl)benzamide]
32 | < 200 nM | CC[C@@H](NC(=O)c1ccc(Cl)cc1)[C@H]1[C@@H]2C[C@@H](c3cnn(C4CC4)c3)C[C@@H]21 [Compound 292, 4-chloro-N—((R)-1-((1R,3S,5S, 6r)-3-(1-cyclopropyl-1H-pyrazol-4-yl)bicyclo[3.1.0]hexan-6-yl)propyl)benzamide]
